From patent US20100221345A1, “OSTEOGENIC BIOMATERIAL CONTAINING OSTEOGENESIS PROMOTING SUBSTANCE AND NANOGEL” (NATIONAL UNIVERSITY CORPORATION TOKYO MEDICAL AND, priority 2006, published 2010)

Key:
[1] = test system: femur cancellous bone; assay: Effect on bones of the whole body: amount of cancellous bone of the femur; assay type: in vivo, ICR mouse; details: same mice, local parietal administration 5 times a week for 4 weeks, FIG. 4
Protocol: (§1) The PGE2-containing CHP prepared by the same manner as in Example 2 was locally administrated onto the parietal bone of a 3-week old ICR mouse 5 times a week for 4 weeks. […] of the prepared PGE2-containing CHP solution (PGE2 0.6 μg/ml) was administered for a dose. Evaluation was conducted for 4 groups of physiological saline, PGE2, CHP, PGE2-containing CHP (N=5). After 4 weeks of administration, the mice were sacrificed, and the parietal bones were collected, and the width of the parietal bone was measured by 2-D μCT. In order to study the effect on the bones of a whole body, the amount of cancellous bone of the femur was evaluated.

[2] = test system: mouse parietal bone; assay: Osteogenesis in mouse parietal bone with PGE2-containing CHP nanogel (width by 2-D μCT); assay type: in vivo; details: 3-week old ICR mouse, local administration onto parietal bone 5 times a week for 4 weeks, PGE2 0.6 μg/ml, FIG. 3
Protocol: PGE2-containing hydrophobized polysaccharide nanogel was administered to a mouse parietal bone to observe osteogenesis.
as §1

[3] = test system: MC3T3E1 cells; assay: Cell growth by the MTT method in osteoblast cell line; assay type: cell-based; details: PGE2 10 μM, 24 hours, FIG. 5
Protocol: (§2) In order to understand the mechanism at the cellular level of the PGE2-containing CHP nanogel, the osteoblast cell line MC3T3E1 cell culture system was used to analyze the cell differentiation by alkaline phosphatase (ALP) activity and the cell growth by the MTT method.
(§3) MC3T3E1 cells were seeded 5×10^3 cells/well in a 96-well plate and cultured in the presence of […] at 37° C. for 1 day. These cells were supplied with the PGE2-containing CHP solution (PGE2 10 μM) prepared in the same manner as in Example 2 to get the same concentration, then cultured in the presence of […] at 37° C. for 24 hours, then collected by scraping, and dissolved in 0.05 ml of a lysis buffer. The alkaline phosphatase (ALP) activity was measured according to the published protocols. In addition, the MTT method was conducted according to the published protocols.

[4] = test system: MC3T3E1 cells; assay: Cell differentiation by alkaline phosphatase (ALP) activity in osteoblast cell line; assay type: cell-based; details: PGE2 10 μM, 24 hours, FIG. 5
Protocol: as §2, §3

Compound: CCCCC[C@H](O)/C=C/[C@H]1[C@H](O)CC(=O)[C@@H]1C/C=C\CCCC(=O)O [PGE2, Prostaglandin E2]
- amount of cancellous bone in the femur apart from the administration site [1]: increase
- width of the parietal bone [2]: no change
- cellular growth (MTT method) [3]: increase
- cellular differentiation (ALP activity) [4]: increase
